Test results as given in ChEMBL document CHEMBL3137547, “Open Source Malaria Deposition 2. http://malaria.ourexperiment.org”.

These compounds were tested on Plasmodium falciparum (assay: OSM: Erythrocyte assay. NF54 with 3H-Hypoxanthine at 72hr time point.).
Assay type: functional, organism-based

Which EC50 does the source give for [O-][n+]1cc(OCCc2ccc(F)c(F)c2)n2c(-c3ccc(OC(F)F)cc3)nnc2c1 here?
Its EC50 is 4010 nM.

For Fc1ccc(CCOc2cnc(Cl)c3nnc(-c4ccc(OC(F)F)cc4)n23)cc1F, which EC50 is on record?
Its EC50 is 160 nM.

Which EC50 does the source give for OCCc1cncc2nnc(-c3ccc(OC(F)F)cc3)n12 here?
The EC50 was 10000 nM.

With OCCC1CNCc2nnc(-c3ccc(OC(F)F)cc3)n21 (stereo not given) as the compound, how does the EC50 read?
Its EC50 is 8370 nM.

With Fc1ccc(N2CC(Oc3cncc4nnc(-c5ccc(OC(F)F)cc5)n34)C2)cc1F as the compound, how does the EC50 read?
The EC50 was 430 nM.

Which EC50 does the source give for FC(F)Oc1ccc(-c2nnc3cncc(N4CCC(c5ccccc5)C4)n23)cc1 (stereo not given) here?
The EC50 was 2000 nM.

Which EC50 does the source give for O=C(NCc1cccc(Cl)c1)c1cncc2nnc(-c3ccc(OC(F)F)cc3)n12 here?
Its EC50 is 250 nM.

With Fc1ccc(CCOc2cncc3nnc(C4CCOCC4)n23)cc1F as the compound, how does the EC50 read?
Its EC50 is 10000 nM.

Which EC50 does the source give for FC(F)Oc1ccc(-c2nnc3n2CCNC3)cc1 here?
Its EC50 is 10000 nM.

For CC(=O)N1CCC(c2nnc3cncc(OCCc4ccc(F)c(F)c4)n23)CC1, which EC50 is on record?
The EC50 was 10000 nM.

For NCC(=O)N1CCn2c(nnc2-c2ccc(OC(F)F)cc2)C1, which EC50 is on record?
The EC50 was 10000 nM.

Which EC50 does the source give for O=C(c1cncc2nnc(-c3ccc(OC(F)F)cc3)n12)N1Cc2ccccc2C1 here?
Its EC50 is 10000 nM.

With O=C(NCc1ccc(Cl)cc1)c1cncc2nnc(-c3ccc(OC(F)F)cc3)n12 as the compound, how does the EC50 read?
Its EC50 is 1340 nM.

How did the EC50 turn out when O=C(NCc1ccccc1Cl)c1cncc2nnc(-c3ccc(OC(F)F)cc3)n12 was run?
The EC50 was 380 nM.

With O=C(NCC1CCOCC1)c1cncc2nnc(-c3ccc(OC(F)F)cc3)n12 as the compound, how does the EC50 read?
Its EC50 is 10000 nM.

With Fc1ccc(CCOc2cncc3nnc(Nc4ccc(F)c(F)c4)n23)cc1F as the compound, how does the EC50 read?
Its EC50 is 850 nM.

Fc1ccc(OC2CN(c3cncc4nnc(-c5ccc(OC(F)F)cc5)n34)C2)cc1F was tested. Which EC50 did it give?
The EC50 was 4960 nM.

How did the EC50 turn out when Fc1ccc(CCOc2cncc3nnc(N4CCCCC4)n23)cc1F was run?
Its EC50 is 2630 nM.

With O=C(c1cncc2nnc(-c3ccc(OC(F)F)cc3)n12)N1CCN(c2ccccn2)CC1 as the compound, how does the EC50 read?
Its EC50 is 10000 nM.

With O=C(NCCN1CCOCC1)c1cncc2nnc(-c3ccc(OC(F)F)cc3)n12 as the compound, how does the EC50 read?
The EC50 was 10000 nM.

O=C(c1cncc2nnc(-c3ccc(OC(F)F)cc3)n12)N1CCOCC1 was tested. Which EC50 did it give?
The EC50 was 10000 nM.

C[C@H](NC(=O)c1cncc2nnc(-c3ccc(OC(F)F)cc3)n12)c1ccccc1 was tested. Which EC50 did it give?
Its EC50 is 1600 nM.

Which EC50 does the source give for O=C(c1cncc2nnc(-c3ccc(OC(F)F)cc3)n12)N1CCCC1 here?
Its EC50 is 10000 nM.

Which EC50 does the source give for CS(=O)(=O)N1CCN(C(=O)c2cncc3nnc(-c4ccc(OC(F)F)cc4)n23)CC1 here?
Its EC50 is 10000 nM.

With C[C@@H](NC(=O)c1cncc2nnc(-c3ccc(OC(F)F)cc3)n12)c1ccccc1 as the compound, how does the EC50 read?
The EC50 was 1360 nM.

How did the EC50 turn out when O=c1[nH]cc(OCCc2ccc(F)c(F)c2)n2c(-c3ccc(OC(F)F)cc3)nnc12 was run?
The EC50 was 4130 nM.

Which EC50 does the source give for O=C(Nc1ccccn1)c1cncc2nnc(-c3ccc(OC(F)F)cc3)n12 here?
The EC50 was 10000 nM.

O=C(NCCc1ccccc1)c1cncc2nnc(-c3ccc(OC(F)F)cc3)n12 was tested. Which EC50 did it give?
Its EC50 is 3170 nM.

How did the EC50 turn out when Fc1ccc(CCOc2cncc3nnc(N4Cc5ccccc5C4)n23)cc1F was run?
The EC50 was 470 nM.

For CCN(CC)c1ncc(OCCc2ccc(F)c(F)c2)n2c(-c3ccc(OC(F)F)cc3)nnc12, which EC50 is on record?
The EC50 was 6860 nM.

With O=S(=O)(Cc1ccc(C(F)(F)F)cc1)Nc1cncc2nnc(-c3ccc(OC(F)F)cc3)n12 as the compound, how does the EC50 read?
Its EC50 is 10000 nM.

Which EC50 does the source give for O=C(c1cncc2nnc(-c3ccc(OC(F)F)cc3)n12)N1CCCC1c1ccccc1 (stereo not given) here?
The EC50 was 3560 nM.

With CN(Cc1cccc(Cl)c1)C(=O)c1cncc2nnc(-c3ccc(OC(F)F)cc3)n12 as the compound, how does the EC50 read?
The EC50 was 1060 nM.

Which EC50 does the source give for FC(F)Oc1ccc(-c2nnc3cncc(CCCc4ccccc4)n23)cc1 here?
Its EC50 is 280 nM.

FC(F)Oc1ccc(-c2nnc3cncc(CCN4CCOCC4)n23)cc1 was tested. Which EC50 did it give?
Its EC50 is 10000 nM.

FC(F)Oc1ccc(-c2nnc3n2C(CCCc2ccccc2)CNC3)cc1 (stereo not given) was tested. Which EC50 did it give?
The EC50 was 8760 nM.

Nc1ncc(OCCc2ccc(F)c(F)c2)n2c(-c3ccc(OC(F)F)cc3)nnc12 was tested. Which EC50 did it give?
The EC50 was 10000 nM.

FC(F)Oc1ccc(-c2nnc3cncc(CCN4Cc5ccccc5C4)n23)cc1 was tested. Which EC50 did it give?
The EC50 was 10000 nM.

How did the EC50 turn out when FC(F)Oc1ccc(-c2nnc3cncc(N4CC(c5ccccc5)C4)n23)cc1 was run?
Its EC50 is 10000 nM.

Which EC50 does the source give for Fc1ccc(COCc2cncc3nnc(-c4ccc(OC(F)F)cc4)n23)cc1F here?
Its EC50 is 360 nM.

Which EC50 does the source give for Cc1ncc(OCCc2ccc(F)c(F)c2)n2c(-c3ccc(OC(F)F)cc3)nnc12 here?
Its EC50 is 6920 nM.

With O=C(Nc1cccc(Cl)c1)c1cncc2nnc(-c3ccc(OC(F)F)cc3)n12 as the compound, how does the EC50 read?
The EC50 was 180 nM.

With O=C(NCc1ccc(F)c(F)c1)c1cncc2nnc(-c3ccc(OC(F)F)cc3)n12 as the compound, how does the EC50 read?
The EC50 was 280 nM.

Which EC50 does the source give for O=C(NCc1cncc2nnc(-c3ccc(OC(F)F)cc3)n12)c1cccc(Cl)c1 here?
Its EC50 is 10000 nM.

FC(F)Oc1ccc(-c2nnc3cncc(Oc4ccc(Cl)cc4)n23)cc1 was tested. Which EC50 did it give?
The EC50 was 2960 nM.

With CO[C@@H](COc1cncc2nnc(-c3ccc(C#N)cc3)n12)c1ccc(F)c(F)c1 as the compound, how does the EC50 read?
The EC50 was 40 nM.

Fc1ccc(CCOc2cncc3ncc(-c4ccc(Cl)cc4)n23)cc1F was tested. Which EC50 did it give?
Its EC50 is 110 nM.

FC(F)Oc1ccc(-c2nnc3cncc(CN4Cc5ccccc5C4)n23)cc1 was tested. Which EC50 did it give?
Its EC50 is 110 nM.

For O=C(Nc1ccc(F)cc1)c1cncc2nnc(-c3ccc(OC(F)F)cc3)n12, which EC50 is on record?
The EC50 was 3740 nM.

O=C(Nc1ccc(F)c(F)c1)c1cncc2nnc(-c3ccc(OC(F)F)cc3)n12 was tested. Which EC50 did it give?
Its EC50 is 650 nM.

For Fc1ccc(CCCc2cncc3nnc(-c4ccc(OC(F)F)cc4)n23)cc1F, which EC50 is on record?
Its EC50 is 320 nM.

O=C(Nc1ccc(Cl)cc1)c1cncc2nnc(-c3ccc(OC(F)F)cc3)n12 was tested. Which EC50 did it give?
The EC50 was 5000 nM.

With Fc1ccc2c(c1)CCN2c1nnc2cncc(OCCc3ccc(F)c(F)c3)n12 as the compound, how does the EC50 read?
Its EC50 is 2050 nM.

How did the EC50 turn out when Fc1ccc(CCOc2cncc3cnc(-c4ccc(Cl)cc4)n23)cc1F was run?
Its EC50 is 830 nM.

Which EC50 does the source give for CN(C)[C@@H](COc1cncc2nnc(-c3ccc(OC(F)F)cc3)n12)c1ccc(F)c(F)c1 here?
Its EC50 is 44.1 nM.

With Fc1ccc(C2(COc3cncc4nnc(-c5ccc(OC(F)F)cc5)n34)COC2)cc1F as the compound, how does the EC50 read?
The EC50 was 483 nM.

With N#Cc1ccc(-c2nnc3cncc(OCC(OC(F)F)c4ccc(F)c(F)c4)n23)cc1 (stereo not given) as the compound, how does the EC50 read?
Its EC50 is 16.7 nM.

FC(F)Oc1ccc(-c2nnc3cncc(Oc4ccc5ccccc5c4)n23)cc1 was tested. Which EC50 did it give?
The EC50 was 115 nM.

With FC(F)Oc1ccc(-c2nnc3cncc(OCC(F)(F)F)n23)cc1 as the compound, how does the EC50 read?
The EC50 was 10000 nM.

CN[C@@H](COc1cncc2nnc(-c3ccc(OC(F)F)cc3)n12)c1ccc(F)c(F)c1 was tested. Which EC50 did it give?
The EC50 was 10000 nM.

How did the EC50 turn out when FC(F)Oc1ccc(-c2nnc3cncc(Oc4ccc(C(F)(F)F)cc4)n23)cc1 was run?
Its EC50 is 383 nM.

Which EC50 does the source give for FC(F)Oc1ccc(-c2nnc3cncc(Oc4ccc(Cl)c(Cl)c4)n23)cc1 here?
Its EC50 is 455 nM.

Which EC50 does the source give for O=C(Nc1ccc(F)c(Cl)c1)c1cncc2nnc(-c3ccc(OC(F)F)cc3)n12 here?
The EC50 was 191 nM.

Which EC50 does the source give for O=C(c1cncc2nnc(-c3ccc(OC(F)F)cc3)n12)N1CCc2cc(F)ccc21 here?
Its EC50 is 10000 nM.

With FC(F)Oc1ccc(-c2nnc3cncc(Nc4ccc(Cl)c(Cl)c4)n23)cc1 as the compound, how does the EC50 read?
The EC50 was 9640 nM.

With FC(F)Oc1ccc(-c2nnc3cncc(Oc4cccc(Cl)c4)n23)cc1 as the compound, how does the EC50 read?
Its EC50 is 3070 nM.

With Fc1ccc(CCOc2cncc3nnc(-c4ccc(C(F)(F)F)nc4)n23)cc1F as the compound, how does the EC50 read?
Its EC50 is 262 nM.

Which EC50 does the source give for O=C(Nc1ccnc(C(F)(F)F)c1)c1cncc2nnc(-c3ccc(OC(F)F)cc3)n12 here?
The EC50 was 140 nM.

With Fc1ccc(CCOc2cn3c(-c4ccc(OC(F)F)cc4)nnc3cn2)cc1F as the compound, how does the EC50 read?
Its EC50 is 33.8 nM.

For Fc1ccc(COc2cn3c(-c4ccc(OC(F)F)cc4)nnc3cn2)cc1F, which EC50 is on record?
Its EC50 is 521 nM.

How did the EC50 turn out when OCC(COc1cncc2nnc(-c3ccc(OC(F)F)cc3)n12)c1ccc(F)c(F)c1 (stereo not given) was run?
Its EC50 is 24.3 nM.

Fc1ccc(CNc2cn3c(-c4ccc(OC(F)F)cc4)nnc3cn2)cc1F was tested. Which EC50 did it give?
The EC50 was 10000 nM.

Which EC50 does the source give for Fc1ccc(C(COc2cncc3nnc(-c4ccc(OC(F)F)cc4)n23)N2CCOCC2)cc1F (stereo not given) here?
Its EC50 is 613 nM.

How did the EC50 turn out when CC(C)(C)c1ccc(Oc2cncc3nnc(-c4ccc(OC(F)F)cc4)n23)cc1 was run?
Its EC50 is 738 nM.

FC(F)Oc1ccc(-c2nnc3cncc(Oc4ccc5c(c4)CCCC5)n23)cc1 was tested. Which EC50 did it give?
The EC50 was 2580 nM.
